In ChEMBL document CHEMBL3734667 (Bioorg Med Chem, 2015):

Assays:
[1] = test system: Poliovirus 1; assay: Antiviral activity against Human poliovirus 1 Sabin; type: functional, organism-based; settings: Enterovirus C
[2] = Cytotoxicity against human MT4 cells assessed as cell viability after 96 hrs by MTT assay; type: cell-based
[3] = Cytotoxicity against MDBK cells assessed as cell viability after 48 to 96 hrs by MTT assay; type: cell-based, Bos taurus; settings: cattle
[4] = Cytotoxicity against BHK cells assessed as cell viability after 48 to 96 hrs by MTT assay; type: cell-based, Mesocricetus auratus; settings: hamster
[5] = Cytotoxicity against african green monkey Vero 76 cells assessed as cell viability after 48 to 96 hrs by crystal violet staining method; type: cell-based; settings: chlorocebus sabaeus
[6] = test system: Bovine viral diarrhea virus 1; assay: Antiviral activity against BVDV infected in MDBK cells assessed as inhibition of virus-induced cytopathogenicity after 3 to 4 days by MTT assay; type: functional, organism-based; settings: Bovine viral diarrhea virus isolates and strains
[7] = test system: Yellow fever virus; assay: Antiviral activity against YFV infected in BHK-21 cells assessed as inhibition of virus-induced cytopathogenicity after 3 to 4 days by MTT assay; type: functional, organism-based
[8] = test system: Mammalian orthoreovirus 1; assay: Antiviral activity against Reo-1 virus infected in BHK-21 cells assessed as inhibition of virus-induced cytopathogenicity after 3 to 4 days by MTT assay; type: functional, cell-based; settings: Mammalian orthoreovirus 1, BHK-21
[9] = test system: Coxsackievirus B5; assay: Antiviral activity against human CVB5 infected in african green monkey Vero76 cells assessed as inhibition of virus-induced cytopathogenicity after 3 days by plaque reduction assay; type: functional, organism-based; settings: Enterovirus B, Vero 76, 72 h
[10] = test system: Human orthopneumovirus; assay: Antiviral activity against human RSV infected in african green monkey Vero76 cells assessed as inhibition of virus-induced cytopathogenicity after 5 days by plaque reduction assay; type: functional, organism-based; settings: human respiratory syncytial virus, Vero 76, 120 h
[11] = test system: Poliovirus 1; assay: Antiviral activity against Human poliovirus 1 Sabin infected in african green monkey Vero76 cells assessed as inhibition of virus-induced cytopathogenicity by plaque reduction assay; type: functional, organism-based; settings: Enterovirus C, Vero 76
[12] = Selectivity index, ratio of CC50 for african green monkey Vero76 cells to EC50 for human CVB5; design: species or system Coxsackievirus B5, Vero 76
[13] = test system: Human immunodeficiency virus 1; assay: Antiviral activity against HIV-1 infected in MT4 cells assessed as inhibition of virus-induced cytopathogenicity after 4 days by MTT assay; type: functional, organism-based; settings: Human immunodeficiency virus 1, MT4, 96 h
[14] = test system: Coxsackievirus B5; assay: Ratio of NM108 EC50 to compound EC50 for human CVB5; type: functional
[15] = test system: Coxsackievirus B5; assay: Ratio of NM176 EC50 to compound EC50 for human CVB5; type: functional
[16] = test system: Human alphaherpesvirus 1; assay: Antiviral activity against HSV1; type: functional, organism-based
[17] = test system: Vesicular stomatitis virus; assay: Antiviral activity against VSV; type: functional, organism-based
[18] = test system: Vaccinia virus; assay: Antiviral activity against Vaccinia virus; type: functional, organism-based; settings: Orthopoxvirus vaccinia
[19] = test system: Respiratory syncytial virus; assay: Antiviral activity against RSV; type: functional, organism-based; settings: human respiratory syncytial virus
[20] = test system: Coxsackievirus B2; assay: Antiviral activity against Human coxsackievirus B2; type: functional, organism-based; settings: Enterovirus B
[21] = Selectivity index, ratio of CC50 for MDBK cells to EC50 for BVDV; design: species or system Bovine viral diarrhea virus 1
[22] = Selectivity index, ratio of CC50 for BHK-21 cells to EC50 for YFV; design: species or system Yellow fever virus
[23] = Selectivity index, ratio of CC50 for african green monkey Vero76 cells to EC50 for human RSV; design: species or system human respiratory syncytial virus, Vero 76
[24] = Selectivity index, ratio of CC50 for african green monkey Vero76 cells to EC50 for human Sb-1; design: species or system Human poliovirus 1 strain Sabin, Vero 76
[25] = test system: dengue virus type 2; assay: Antiviral activity against DENV-2 infected in BHK-21 cells assessed as inhibition of virus-induced cytopathogenicity after 3 to 4 days by MTT assay; type: functional, organism-based
[26] = Selectivity index, ratio of CC50 for BHK-21 cells to EC50 for DENV-2
[27] = test system: West Nile virus; assay: Antiviral activity against WNV infected in BHK-21 cells assessed as inhibition of virus-induced cytopathogenicity after 3 to 4 days by MTT assay; type: functional, organism-based
[28] = Selectivity index, ratio of CC50 for BHK-21 cells to EC50 for WNV; design: species or system West Nile virus
[29] = test system: Influenza B virus; assay: Antiviral activity against Influenza B virus; type: functional
[30] = Inhibition of HCV helicase; design: species or system Hepacivirus hominis
[31] = biological target: Peroxisome proliferator-activated receptor alpha (Homo sapiens, UniProt Q07869); assay: Agonist activity at human PPAR alpha in human HepG2 cells after 20 hrs by luciferase reporter assay; type: cell-based
Chain of Peroxisome proliferator-activated receptor alpha (Q07869 whole entry): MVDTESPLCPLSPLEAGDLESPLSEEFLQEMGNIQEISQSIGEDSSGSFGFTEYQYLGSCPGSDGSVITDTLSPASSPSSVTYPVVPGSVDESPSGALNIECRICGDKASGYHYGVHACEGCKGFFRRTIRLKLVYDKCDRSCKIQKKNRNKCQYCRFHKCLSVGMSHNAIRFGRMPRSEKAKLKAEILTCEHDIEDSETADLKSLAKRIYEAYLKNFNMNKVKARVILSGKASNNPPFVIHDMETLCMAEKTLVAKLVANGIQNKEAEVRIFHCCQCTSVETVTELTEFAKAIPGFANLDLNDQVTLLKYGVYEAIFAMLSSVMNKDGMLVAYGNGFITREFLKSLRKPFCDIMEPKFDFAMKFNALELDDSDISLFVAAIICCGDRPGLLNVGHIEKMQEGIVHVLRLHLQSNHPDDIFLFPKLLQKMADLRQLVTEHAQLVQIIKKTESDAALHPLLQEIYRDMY

[32] = biological target: Peroxisome proliferator-activated receptor gamma (Homo sapiens, UniProt P37231); assay: Agonist activity at human PPAR gamma in human HepG2 cells after 20 hrs by luciferase reporter assay; type: cell-based
Chain of Peroxisome proliferator-activated receptor gamma (P37231 whole entry): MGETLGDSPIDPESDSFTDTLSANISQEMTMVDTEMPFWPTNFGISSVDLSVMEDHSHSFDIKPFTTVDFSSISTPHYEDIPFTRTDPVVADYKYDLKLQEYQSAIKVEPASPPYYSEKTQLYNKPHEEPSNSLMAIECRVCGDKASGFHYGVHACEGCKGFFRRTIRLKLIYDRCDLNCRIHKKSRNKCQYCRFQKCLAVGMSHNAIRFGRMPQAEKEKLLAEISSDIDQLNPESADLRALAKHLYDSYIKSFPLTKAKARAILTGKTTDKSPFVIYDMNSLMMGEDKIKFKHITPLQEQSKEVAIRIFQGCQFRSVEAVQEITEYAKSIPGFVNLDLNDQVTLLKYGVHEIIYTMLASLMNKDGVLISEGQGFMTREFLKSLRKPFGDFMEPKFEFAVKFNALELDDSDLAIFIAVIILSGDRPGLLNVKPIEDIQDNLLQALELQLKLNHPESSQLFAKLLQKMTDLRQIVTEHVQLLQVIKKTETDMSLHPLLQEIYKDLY

[33] = test system: Poliovirus 2; assay: Antiviral activity against Human poliovirus 2; type: functional; settings: Enterovirus C
[34] = Selectivity index, ratio of CC50 for human MT4 cells to EC50 for HIV-1; type: toxicity, cell-based; settings: human immunodeficiency virus 1, MT4 cells; read-out: Ratio CC50/EC50
[35] = test system: Semliki Forest virus; assay: Antiviral activity against Semliki forest virus assessed as inhibition of virus growth at 170 uM; type: functional

Compound	CC50 at 96 h [2]	CC50 [3]	CC50 [4]	CC50 [5]	EC50 [6]	EC50 [7]	EC50 [9]	EC50 [10]	EC50 [11]	EC50 [13]	EC50 [17]	EC50 [18]	further results
CC(=O)Nc1ccc(-n2nnc3ccc(C(F)(F)F)cc32)cc1													EC50 [1]: 30 µM
Cc1ccc2nn(-c3ccc(OCCCC(C)(C)C(=O)O)cc3)nc2c1	53 µM	24 µM	17 µM	15 µM	> 100 µM	> 100 µM	0.15 µM	> 100 µM	> 100 µM	> 100 µM	> 100 µM	> 100 µM	EC50 [8]: > 100 µM; Ratio CC50/EC50 [12]: 100; Ratio EC50 [14]: 133; Ratio EC50 [15]: 200; EC50 [16]: > 100 µM
O=c1n(Cc2nc3ccccc3n2CCCCO)c2cnccc2n1C1CC1													EC50 [19]: 0.01 µM
CCC(=O)Nc1ccc(-n2nc3cc(C)c(C)cc3n2)cc1													EC50 [20]: 10 µM
Oc1ccc(-n2nc3ccc(C(F)(F)F)cc3n2)cc1	≥ 100 µM	47 µM	65 µM	> 100 µM	30 µM	17 µM	> 100 µM	10 µM	80 µM	> 100 µM	> 100 µM	> 100 µM	EC50 [8]: > 100 µM; Ratio CC50/EC50 [21]: 1.57; Ratio CC50/EC50 [22]: 3.82; Ratio CC50/EC50 [23]: >10; Ratio CC50/EC50 [24]: >1.25; EC50 [25]: 17 µM; Ratio CC50/EC50 [26]: 3.82; EC50 [27]: > 100 µM; EC50 [16]: > 100 µM
Oc1ccc(-n2nc3cc(Cl)c(Cl)cc3n2)cc1	47 µM	37 µM	28 µM	50 µM	14 µM	6 µM	25 µM	8 µM	> 100 µM	> 100 µM	> 100 µM	> 100 µM	EC50 [8]: > 100 µM; Ratio CC50/EC50 [21]: 2.64; Ratio CC50/EC50 [22]: 4.67; Ratio CC50/EC50 [28]: 2.15; Ratio CC50/EC50 [12]: 2; Ratio CC50/EC50 [23]: 6.25; EC50 [25]: 8 µM; Ratio CC50/EC50 [26]: 3.5; EC50 [27]: 13 µM; EC50 [16]: > 100 µM
OCC1OC(n2nnc3cc(Cl)c(Cl)cc32)C(O)C1O (stereo unspecified)													EC75 [29]: 750 µM; IC50 [30]: 1.5 µM
Clc1ccc2c(c1)nc(Cn1nnc3ccccc31)n2CC[C@@H]1CCCN2CCCC[C@H]12													EC50 [19]: 0.02 µM
Cc1cc(-n2nc3ccccc3n2)cc(C)c1OC(C)(C)C(=O)O	> 100 µM	> 100 µM	> 100 µM	≥ 100 µM	> 100 µM	> 100 µM	> 100 µM	> 100 µM	> 100 µM	> 100 µM	> 100 µM	> 100 µM	EC50 [31]: 0.096 µM; EC50 [32]: 0.48 µM
Clc1c(Cl)c(Cl)c2[nH]nnc2c1Cl													EC75 [29]: 3 µM; EC75 [33]: 8.1 µM
CN(C)c1cccc(C(=O)OCCn2nc3ccccc3n2)c1	> 100 µM	> 100 µM	> 100 µM	> 100 µM	> 100 µM	> 100 µM	> 100 µM	> 100 µM		56 µM	> 100 µM	> 100 µM	selectivity ratio [34]: 1.78
CCCn1nc2c(Br)c(Br)c(Br)c(Br)c2n1													IC50 [30]: 5.8 µM
O=c1[nH]c2cc(S(=O)(=O)n3nnc4cc(Cl)ccc43)ccc2o1													inhibition at 170 µM [35]: 99%
